From PubChem BioAssay AID1963976 (Molecular Pharmacology Branch, DTP, NCI, 2024)

Tested on: 435261-313-R-J1-PDC tumor spheroid viability
Assay: Anticancer human tumor 435261-313-R-J1-PDC patient-derived colon adenocarcinoma cell line growth inhibition [PI3K]
Conditions: spheroids with HUVEC and MSC; for IC50: curve of first compound; for viability, T/C: stronger effect = lower value; active means viability on the fitted dose curve at most 10% of control; inactive means the rest
In short: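 Combination activity was assessed by viability in multicellular tumor spheroids carrying HUVEC and MSC components. Agents were tested with PI3K inhibitors from a Cmax-based top dose (or 10 microM) downward in half-log increments.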

[1] = second compound 0.00316 µM, first compound 0.0316 µM
[2] = second compound 0.00316 µM, first compound 0.1 µM
[3] = second compound 0.01 µM, first compound 0.0316 µM
[4] = second compound 0.01 µM, first compound 0.1 µM
[5] = second compound 0.0316 µM, first compound 0.0316 µM
[6] = second compound 0.0316 µM, first compound 0.1 µM
[7] = second compound 0.0316 µM, first compound 0.316 µM
[8] = second compound 0.0316 µM, first compound 1 µM
[9] = second compound 0.0316 µM, first compound 3.16 µM
[10] = second compound 0.0316 µM, first compound 10 µM
[11] = second compound 0.1 µM, first compound 0.0316 µM
[12] = second compound 0.1 µM, first compound 0.1 µM
[13] = second compound 0.1 µM, first compound 0.316 µM
[14] = second compound 0.1 µM, first compound 1 µM
[15] = second compound 0.1 µM, first compound 3.16 µM
[16] = second compound 0.1 µM, first compound 10 µM
[17] = second compound 0.316 µM, first compound 0.0316 µM
[18] = second compound 0.316 µM, first compound 0.1 µM
[19] = second compound 0.316 µM, first compound 0.316 µM
[20] = second compound 0.316 µM, first compound 1 µM
[21] = second compound 0.316 µM, first compound 3.16 µM
[22] = second compound 0.316 µM, first compound 10 µM
[23] = second compound 1 µM, first compound 0.0316 µM
[24] = second compound 1 µM, first compound 0.1 µM
[25] = second compound 1 µM, first compound 0.316 µM
[26] = second compound 1 µM, first compound 1 µM
[27] = second compound 1 µM, first compound 3.16 µM
[28] = second compound 1 µM, first compound 10 µM
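Further: spheroids exposed to compounds for 7 days.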

C[C@@H](NC(=O)c1ncnc(N)c1Cl)c1ncc(C(=O)Nc2cc(C(F)(F)F)c(Cl)cn2)s1 + COc1c(OCCCN2CCOCC2)ccc2c3n(c(=NC(=O)c4cnc(N)nc4)nc12)CCN3
active: viability, T/C [21] 10.5% | viability, T/C [22] 3.91% | viability, T/C [23] 5.11% | viability, T/C [24] 6.44% | viability, T/C [25] 7.13% | viability, T/C [26] 7.09% | viability, T/C [27] 5.4% | viability, T/C [28] 2.3%
> 10000 nM: IC50 (second compound 0.00316 µM) | IC50 (second compound 0.01 µM)
< 31.6 nM: IC50 (second compound 0.0316 µM) | IC50 (second compound 0.1 µM) | IC50 (second compound 0.316 µM) | IC50 (second compound 1 µM)
inactive: viability, T/C [1] 133% | viability, T/C [2] 138% | viability, T/C (second compound 0.00316 µM, first compound 0.316 µM) 70% | viability, T/C (second compound 0.00316 µM, first compound 1 µM) 120% | viability, T/C (second compound 0.00316 µM, first compound 3.16 µM) 99.2% | viability, T/C (second compound 0.00316 µM, first compound 10 µM) 78.6% | viability, T/C [3] 66.2% | viability, T/C [4] 70.4% | viability, T/C (second compound 0.01 µM, first compound 0.316 µM) 69.8% | viability, T/C (second compound 0.01 µM, first compound 1 µM) 103% | viability, T/C (second compound 0.01 µM, first compound 3.16 µM) 63.3% | viability, T/C (second compound 0.01 µM, first compound 10 µM) 53.2% | viability, T/C [5] 32.7% | viability, T/C [6] 33.6% | viability, T/C [7] 47.5% | viability, T/C [8] 30.1% | viability, T/C [9] 37.8% | viability, T/C [10] 17.5% | viability, T/C [11] 20.4% | viability, T/C [12] 21.7% | viability, T/C [13] 22% | viability, T/C [14] 19.5% | viability, T/C [15] 18.2% | viability, T/C [16] 8.2% | viability, T/C [17] 10.8% | viability, T/C [18] 13.1% | viability, T/C [19] 12.2% | viability, T/C [20] 13.3%

Cn1ncc(Cl)c1-c1cc(C(=O)NC(CN)Cc2cccc(F)c2)sc1Cl (stereo unspecified) + Cc1nc(NC(=O)N2CCCC2C(N)=O)sc1-c1ccnc(C(C)(C)C(F)(F)F)c1
active: viability, T/C [22] 7.01% | viability, T/C [28] 4.12% | viability, T/C (second compound 3.16 µM, first compound 3.16 µM) 11.9% | viability, T/C (second compound 3.16 µM, first compound 10 µM) 1.21% | viability, T/C (second compound 10 µM, first compound 0.0316 µM) 9.08% | viability, T/C (second compound 10 µM, first compound 0.1 µM) 7.96% | viability, T/C (second compound 10 µM, first compound 0.316 µM) 6.42% | viability, T/C (second compound 10 µM, first compound 1 µM) 8.32% | viability, T/C (second compound 10 µM, first compound 3.16 µM) 4.5% | viability, T/C (second compound 10 µM, first compound 10 µM) 0.47%
inactive: viability, T/C [5] 83.5% | viability, T/C [6] 67.3% | viability, T/C [7] 71.8% | viability, T/C [8] 31.2% | viability, T/C [9] 18.6% | viability, T/C [10] 6.47% | viability, T/C [11] 58.5% | viability, T/C [12] 82% | viability, T/C [13] 51.6% | viability, T/C [14] 28.1% | viability, T/C [15] 21.7% | viability, T/C [16] 6.76% | viability, T/C [17] 42.9% | viability, T/C [18] 41% | viability, T/C [19] 38% | viability, T/C [20] 27.2% | viability, T/C [21] 14.2% | viability, T/C [23] 31.9% | viability, T/C [24] 34.8% | viability, T/C [25] 29.2% | viability, T/C [26] 19.1% | viability, T/C [27] 16.2% | viability, T/C (second compound 3.16 µM, first compound 0.0316 µM) 15.7% | viability, T/C (second compound 3.16 µM, first compound 0.1 µM) 14.7% | viability, T/C (second compound 3.16 µM, first compound 0.316 µM) 15.8% | viability, T/C (second compound 3.16 µM, first compound 1 µM) 16.9%
< 31.6 nM: IC50 (second compound 0.316 µM) | IC50 (second compound 1 µM) | IC50 (second compound 3.16 µM) | IC50 (second compound 10 µM)
579 nM: IC50 (second compound 0.0316 µM)
400 nM: IC50 (second compound 0.1 µM)

Cn1ncnc1[C@H]1c2n[nH]c(=O)c3cc(F)cc(c23)N[C@@H]1c1ccc(F)cc1 + CC(Nc1ccc2c(c1)OCCn1cc(N3C(=O)OCC3C(F)F)nc1-2)C(N)=O
< 0.316 nM: IC50 (second compound 0.316 µM) | IC50 (second compound 1 µM)
> 100 nM: IC50 (second compound 0.00316 µM) | IC50 (second compound 0.01 µM)
inactive: viability, T/C (second compound 0.00316 µM, first compound 0.000316 µM) 105% | viability, T/C (second compound 0.00316 µM, first compound 0.001 µM) 88.5% | viability, T/C (second compound 0.00316 µM, first compound 0.00316 µM) 102% | viability, T/C (second compound 0.00316 µM, first compound 0.01 µM) 96.3% | viability, T/C [1] 83.9% | viability, T/C [2] 69.4% | viability, T/C (second compound 0.01 µM, first compound 0.000316 µM) 74.4% | viability, T/C (second compound 0.01 µM, first compound 0.001 µM) 85.5% | viability, T/C (second compound 0.01 µM, first compound 0.00316 µM) 81.7% | viability, T/C (second compound 0.01 µM, first compound 0.01 µM) 95.8% | viability, T/C [3] 68% | viability, T/C [4] 50.2% | viability, T/C (second compound 0.0316 µM, first compound 0.000316 µM) 67.4% | viability, T/C (second compound 0.0316 µM, first compound 0.001 µM) 81.3% | viability, T/C (second compound 0.0316 µM, first compound 0.00316 µM) 92.6% | viability, T/C (second compound 0.0316 µM, first compound 0.01 µM) 86.1% | viability, T/C [5] 53.6% | viability, T/C [6] 40.4% | viability, T/C (second compound 0.1 µM, first compound 0.000316 µM) 55.6% | viability, T/C (second compound 0.1 µM, first compound 0.001 µM) 42.9% | viability, T/C (second compound 0.1 µM, first compound 0.00316 µM) 41.9% | viability, T/C (second compound 0.1 µM, first compound 0.01 µM) 39.4% | viability, T/C [11] 36.1% | viability, T/C [12] 30.7% | viability, T/C (second compound 0.316 µM, first compound 0.000316 µM) 21.6% | viability, T/C (second compound 0.316 µM, first compound 0.001 µM) 20.8% | viability, T/C (second compound 0.316 µM, first compound 0.00316 µM) 26.2% | viability, T/C (second compound 0.316 µM, first compound 0.01 µM) 19.5% | viability, T/C [17] 20.6% | viability, T/C [18] 17.1% | viability, T/C (second compound 1 µM, first compound 0.000316 µM) 18.3% | viability, T/C (second compound 1 µM, first compound 0.001 µM) 17.5% | viability, T/C (second compound 1 µM, first compound 0.00316 µM) 17% | viability, T/C (second compound 1 µM, first compound 0.01 µM) 20.7% | viability, T/C [23] 20.2% | viability, T/C [24] 12.5%
43.5 nM: IC50 (second compound 0.0316 µM)
0.592 nM: IC50 (second compound 0.1 µM)
